Entries after “also recorded” stand apart in the source; their conditions may differ.
Legend:
bleomycin hydrolase [1] = assay: Effect of cytokines on bleomycin hydrolase mRNA expression, quantitative PCR (Experiment 5, FIG. 14); assay type: cell-based, human; details: keratinocytes in the proliferation stage, 24 hours, IL-4 and TNFα 0.1-10 ng/ml, IFNγ 1.0-100 ng/ml
Procedure: (§1) Normal human epidermal keratinocytes derived from neonatal epidermis (Kurabo Industries, Ltd., Osaka, Japan) were cultured in EpiLife medium (Cascade Biologics, Inc., Portland, Oreg.) containing low-concentration (0.03 mM) calcium and HKGS Growth Supplement (Cascade Biologics, Inc.). All cells were incubated at 37° C. in the presence of 5% CO2 and were used within 4 passages of subculturing. Cells were collected at 70% confluence, 100% confluence, 2 days after reaching confluence, and 2 days after reaching confluence in 2 mM calcium.
The expression level of bleomycin hydrolase in keratinocytes was measured by quantitative PCR according to the following method using Light Cycler 480 (Roche Diagnostics GmbH, Mannheim, Germany). Light Cycler FastStart DNA Master CYBR Green I was used for the reagent. 0.6 μl aliquots of each of the following bleomycin hydrolase primers and 6.8 μl of water were added to 10 μl of SYBR Green I Master Mix followed by bringing to a total volume of 20 μl and carrying out PCR for 45 cycles consisting of 15 seconds at 95° C., 20 seconds at 55° C. and 20 seconds at 72° C. The results obtained were corrected by comparing with the results for a housekeeping gene, G3PDH.
IL-4 (final concentration: 0.1, 1.0 or 10 ng/ml), TNFα (final concentration: 0.1, 1.0 or 10 ng/ml) and IFNγ (final concentration: 1.0, 10 or 100 ng/ml) were respectively added to cultured keratinocytes in the proliferation stage, and after incubating for 24 hours, RNA was collected using Isogen. Expression of bleomycin hydrolase mRNA was measured by quantitative PCR. Based on the results shown in FIG. 14, a type of cytokine, interleukin-4 (IL-4) can be understood to down-regulate expression of bleomycin hydrolase.

BH gene = assay: Cytokine-mediated regulation of BH gene expression, real-time RT-PCR (Experiment 6, FIG. 20A); assay type: cell-based, human; details: proliferating keratinocytes, 24 hours of incubation
Procedure: as §1
(§2) Transcription levels of BH and related factors were analyzed by quantitative real-time RT-PCR. Total RNA was extracted from cultured cells using Isogen (Nippon Gene Co., Ltd., Tokyo, Japan) in accordance with the instructions provided by the manufacturer. Reverse transcription of cDNA was carried out using SuperScript™ II (Invitrogen Corp., Carlsbad, Calif.). Real-time RT-PCR was carried out with the Light Cycler Raid Cycler System using the Light Cycler 480 SYBR Green I Master Mix (Roche Diagnostics GmbH) in accordance with the instructions provided by the manufacturer. Glyceraldehyde 3-phosphate dehydrogenase (GAPDH) was used as a housekeeping gene. Specificity of the amplified fragments was confirmed by quantitative analysis of melting curves by Light Cycler analytical software. The amounts of mRNA were standardized with respect to GAPDH mRNA, and finally indicated as a ratio to the mRNA of an untreated control.
Since BH is an NMF-producing enzyme, it has the possibility of being involved in the pathophysiology of AD. Accordingly, an investigation was conducted of the effects of Th1, Th2 and Th17 cytokines on BH gene expression. […] Similar results were obtained with differentiated keratinocytes (data not shown). In order to clarify the role of IFN-γ in the regulation of BH gene expression, a promoter assay was carried out to identify cytokine response elements. […] IFN-γ no longer suppressed promoter activity after this sequence was deleted (FIG. 20B). […]

BH promoter = BH promoter luciferase assay in transfected cultured keratinocytes (FIG. 20B); assay type: cell-based, human; details: keratinocytes transfected with pGL3-BH-616 containing IRF-1/2 binding sites, 24 hours
Procedure: Keratinocytes were cultured in a 12-well tissue culture plate at a density of 5×10^4 cells/well followed by transfection with 1 μg aliquots of each construct using FuGene HD Transfection Reagent (Roche Diagnostics AG, Basel, Switzerland). In order to correct for transfection efficiency, all cells were simultaneously transfected with pGL4.74 [hRluc-TK] vector (Promega Co.) containing sea pansy (Renilla) luciferase gene under the control of HSV-TK promoter. Unless specifically indicated otherwise, the cells were collected 24 hours after transfection and lysed using […] of Passive Lysis Buffer (Promega Co.) per well. Luciferase activity was analyzed using the Dual Luciferase Reporter Assay System (Promega Co.) and Auto Lumat Plus Luminoeter (Berthold Technologies GmbH, Bad Wilbad, Germany). Firefly luciferase activity was standardized for sea pansy luciferase activity. Three transfections were independently carried out for each construct and results were expressed as the mean value thereof.
Since BH is an NMF-producing enzyme, it has the possibility of being involved in the pathophysiology of AD. Accordingly, an investigation was conducted of the effects of Th1, Th2 and Th17 cytokines on BH gene expression. […] Similar results were obtained with differentiated keratinocytes (data not shown). […]

IRF-1 = assay: Effect of cytokines on IRF-1 mRNA expression in cultured keratinocytes (FIG. 22); assay type: cell-based, human
Procedure: as §2
(§3) An investigation was conducted of the cytokine-dependent regulation of these transcription factors.

IRF-2 = assay: Effect of cytokines on IRF-2 mRNA expression in cultured keratinocytes (FIG. 22); assay type: cell-based, human
Procedure: as §2, §3

MZF-1 = assay: Effect of cytokines on MZF-1 expression in cultured keratinocytes (FIG. 22); assay type: cell-based, human; details: most effective at IL-4 10 ng/ml
Procedure: as §2, §3

Sp-1 = assay: Effect of cytokines on Sp-1 expression in cultured keratinocytes (FIG. 22); assay type: cell-based, human; details: most effective at IL-4 10 ng/ml
Procedure: as §2, §3

bleomycin hydrolase [2] = assay: Screening for bleomycin hydrolase production promoting effects (RT-PCR, cultured human keratinocytes); assay type: cell-based; details: for expression of bleomycin hydrolase in comparison with the control: 50 μg/ml, human keratinocytes, 24 hours, control 0.1% 1,3-butylene glycol, FIG. 24; for production of bleomycin hydrolase, concentration dependence: general statement in description
Procedure: Human keratinocytes derived from normal foreskin (Cascade Biologics Inc., Portland, Md.) were cultured for 24 hours at […] in the presence of each of the herbal medicine extracts or pharmaceutical agents ([…] to 50 μg/ml) shown in FIG. 24 in keratinocyte growth medium consisting of MCDB medium supplemented with epidermal growth factor (0.1 ng/ml), insulin (10 μg/ml), hydrocortisone (0.5 μg/ml), bovine pituitary extract (0.4%), gentamycin (50 μg/ml) and amphotericin B (50 ng/ml). 0.1% 1,3-butylene glycol was used as a control.
Total RNA (500 ng) isolated from the human keratinocytes cultured in the manner described above was reverse-transcribed using random hexamers and Superscript II RNase H-transcriptase (Gibco-BRL Corp., Gaithersburg, Md.), followed by subjecting to PCR amplification using Taq DNA polymerase (Takara Corp., Kyoto, Japan) and the following primers. 40 amplification cycles were carried out consisting of 30 seconds at 94° C., 1 minute at 60° C. and 1 minute at 72° C.
The primers used in PCR are indicated below.

[3] = only at IL-4 100 ng/ml, FIG. 22B

Compound	expression of bleomycin hydrolase mRNA (bleomycin hydrolase [1])	BH mRNA expression (BH gene)	expression of bleomycin hydrolase in comparison with the control (bleomycin hydrolase [2])	production of bleomycin hydrolase, concentration dependence (bleomycin hydrolase [2])	other results
IFN-γ: Th1 cytokine, human IFN-γ purchased from Peprotech EC	significantly increases	dose-dependent down-regulation; also recorded: remarkably suppressed; also recorded: significantly decreases			BH promoter activity (luciferase) (BH promoter): down-regulated; IRF-1 mRNA expression (IRF-1; IFN-γ treatment, FIG. 22A): potent dose-dependent up-regulation; IRF-2 expression (IRF-2; IFN-γ treatment, FIG. 22A): up-regulated
TNFα	significantly increases				
IL-4: Th2 cytokine, human IL-4 purchased from Peprotech EC	down-regulates	did not demonstrate any direct action whatsoever			expression of IRF-1 (IRF-1; [3]): significantly amplified; expression of IRF-2 (IRF-2; [3]): significantly amplified; expression of MZF-1 (MZF-1): down-regulated most effectively; also recorded: down-regulated; expression of Sp-1 (Sp-1): down-regulated most effectively; also recorded: down-regulated
OC[C@@H](O)[C@@H](O)CO [erythritol]			significantly increase	concentration-dependently promotes production	
IL-13: Th2 cytokine, human IL-13 manufactured by R&D Systems Inc.		did not demonstrate any direct action whatsoever			
O=C(O)CCCNS(=O)(=O)c1ccccc1 [benzenesulfonyl GABA, benzenesulfonyl γ-aminobutyric acid]			significantly increase	concentration-dependently promotes production	

Reference: patent US20140010901A1, “BLEOMYCIN HYDROLASE PRODUCTION PROMOTOR” (Shiseido Company, Ltd., priority 2011, published 2014)
